Like-named read-outs stand apart in the source and are kept apart here.
How the values were obtained:
[1] = system: cryo-preserved hepatocytes; test: Hepatocyte stability assay, human; format: in vitro ADME; conditions: human, hepatocytes
Summary of the method: (§1)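 Cryopreserved hepatocytes at 0.5×10^6 cells/mL in Leibovitz buffer, 37 °C, with 10 μM compound (0.1% DMSO), duplicate. Samples at 0-60 min, acetonitrile quench, LC-MS/MS; intrinsic clearance and half-life from ln % remaining versus time, with buffer-only incubations as control.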

[2] = Hepatocyte stability assay, human; format: in vitro ADME; conditions: human, hepatocytes, T½
Summary of the method: as §1

IL-6 = test: THP-1 AlphaLISA IL-6 cytokine assay (differentiated THP-1 cells); format: cell-based; conditions: Homo sapiens
Summary of the method: (§2)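 PMA-differentiated THP-1 cells were preincubated 30 min with compound, stimulated with LPS for 24 h, then nigericin for 1 h, all at 37 °C. Supernatant IL-1β and IL-6 were quantified by AlphaLISA. % inhibition is normalised to +LPS and −LPS controls per cytokine.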

IL-1β = test: THP-1 AlphaLISA IL-1β cytokine assay (differentiated THP-1 cells); format: cell-based; conditions: Homo sapiens
Summary of the method: as §2

[3] = system: NRF2 (nuclear factor erythroid 2-related factor 2); test: NRF2 +/-GSH activation assay (DiscoverX PathHunter NRF2 translocation kit, U2OS cells); format: cell-based; conditions: Homo sapiens
[4] = system: cryo-preserved hepatocytes; test: Hepatocyte stability assay, mouse; format: in vitro ADME; conditions: mouse, hepatocytes
Summary of the method: as §1

[5] = Hepatocyte stability assay, mouse; format: in vitro ADME; conditions: mouse, hepatocytes, T½
Summary of the method: as §1

[6] = THP-1, differentiated THP-1 cells, LPS 24 hr then Nigericin 1 hour, read-out: IL-6 (IC50)
[7] = THP-1, differentiated THP-1 cells, LPS 24 hr then Nigericin 1 hour, read-out: IL-1β (IC50)
[8] = U2OS, +GSH, normalised to dimethyl fumarate high control, read-out: NRF2 activation Emax, +GSH
[9] = U2OS, −GSH, normalised to dimethyl fumarate high control, read-out: NRF2 activation Emax, −GSH
[10] = +GSH, U2OS PathHunter cells, 6 hours, read-out: NRF2 activation EC50, +GSH
[11] = −GSH, U2OS PathHunter cells, 6 hours, read-out: NRF2 activation EC50, −GSH
[12] = U2OS, 6 h, read-out: NRF2 activation EC50, +GSH
[13] = U2OS, 6 h, read-out: NRF2 activation EC50, −GSH
[14] = U2OS, read-out: NRF2 activation Emax, +GSH
[15] = U2OS, read-out: NRF2 activation Emax, −GSH

| Compound | Clint [1] | half-life at 10 μM [2] | IC50 (IL-6; [6]) | IC50 (IL-1β; [7]) | Emax [3, 8] | Emax [3, 9] | EC50 [3, 10] | EC50 [3, 11] | Clint [4] | half-life at 10 μM [5] | IC50 (IL-6; THP-1, read-out: IL-6 (IC50)) | IC50 (IL-1β; THP-1, read-out: IL-1β (IC50)) | EC50 [3, 12] | EC50 [3, 13] | Emax [3, 14] | Emax [3, 15] | IC50 (IL-1β; THP-1, differentiated THP-1 cells, footnote a: data from repeated experiments, read-out: IL-1β (IC50), data from repeated experiments) |
| --- | --- | --- | --- | --- | --- | --- | --- | --- | --- | --- | --- | --- | --- | --- | --- | --- | --- |
| C=C(CC(=O)N[C@@H](C)c1ccc(C(F)(F)F)cc1)C(=O)OC1CCN(C)CC1 [Example 24, 1-methylpiperidin-4-yl (S)-2-methylene-4-oxo-4-((1-(4-(trifluoromethyl)phenyl)ethyl)amino)butanoate] | 23 μL min^−1 10^−6 cells | 65 min | 4 µM | 4.7 µM | 30% | 78% | > 100 µM | 9.05 µM | 199 μL min^−1 10^−6 cells | 8 min | – | – | – | – | – | – | – |
| C=C(CC(=O)N[C@@H](C)c1ccc(C(F)(F)F)cn1)C(=O)OCCO [Example 34, 2-hydroxyethyl (S)-2-methylene-4-oxo-4-((1-(5-(trifluoromethyl)pyridin-2-yl)ethyl)amino)butanoate] | 11 μL min^−1 10^−6 cells | 137 min | 25.8 µM | 14.8 µM | 16% | 81% | > 100 µM | 5.7 µM | 24 μL min^−1 10^−6 cells | 71 min | – | – | – | – | – | – | – |
| C/C=C(\CC(=O)N[C@@H](C)c1ccc(C(F)(F)F)cc1)C(=O)O [Example 42, (S,E)-2-(2-oxo-2-((1-(4-(trifluoromethyl)phenyl)ethyl)amino)ethyl)but-2-enoic acid] | <3 μL min^−1 10^−6 cells | > 460 min | – | – | – | – | – | – | 3 μL min^−1 10^−6 cells | 323 min | > 68.1 µM | 2.3 µM | > 100 µM | > 100 µM | 3% | 8% | – |
| C=C(CC(=O)N[C@@H](C)c1ccc(C(F)(F)F)cc1)C(=O)OC1CS(=O)(=O)C1 [Example 27, 1,1-dioxidothietan-3-yl (S)-2-methylene-4-oxo-4-((1-(4-(trifluoromethyl)phenyl)ethyl)amino)butanoate] | 126 μL min^−1 10^−6 cells | 12 min | 1.4 µM | 3.3 µM | 10% | 84% | > 100 µM | 6.3 µM | 215 μL min^−1 10^−6 cells | 6 min | – | – | – | – | – | – | – |
| C=C(CC(=O)N[C@@H](C)c1ccc(C(F)(F)F)cc1)C(=O)OC1CCN(S(C)(=O)=O)CC1 [Example 22, 1-(methylsulfonyl)piperidin-4-yl (S)-2-methylene-4-oxo-4-((1-(4-(trifluoromethyl)phenyl)ethyl)amino)butanoate] | 49 μL min^−1 10^−6 cells | 37 min | 3.6 µM | 7.1 µM | 8% | 3% | > 100 µM | > 100 µM | 99 μL min^−1 10^−6 cells | 13 min | – | – | – | – | – | – | – |
| C=C(CC(=O)N[C@@H](C)c1ccc(C(F)(F)F)cc1)c1nnn[nH]1 [Example 57, (S)-3-(1H-tetrazol-5-yl)-N-(1-(4-(trifluoromethyl)phenyl)ethyl)but-3-enamide] | <3 μL min^−1 10^−6 cells | > 460 min | > 10 µM | 1.9 µM | 48.5% | 55% | > 100 µM | 46.8 µM | <3 μL min^−1 10^−6 cells | > 460 min | – | – | – | – | – | – | – |
| C=C(CC(=O)N[C@@H](C)c1ccc(C(F)(F)F)cn1)C(=O)OC1CCN(S(C)(=O)=O)CC1 [Example 31, 1-(methylsulfonyl)piperidin-4-yl (S)-2-methylene-4-oxo-4-((1-(5-(trifluoromethyl)pyridin-2-yl)ethyl)amino)butanoate] | 11 μL min^−1 10^−6 cells | 138 min | – | – | – | – | – | – | 34 μL min^−1 10^−6 cells | 35 min | 13.3 µM | 2.4 µM | > 100 µM | 43.3 µM | 27% | 82% | – |
| C=C(CC(=O)NC1(c2ccc(C(F)(F)F)cc2)CCC1)C(=O)O [Example 5, 2-methylene-4-oxo-4-((1-(4-(trifluoromethyl)phenyl)cyclobutyl)amino)butanoic acid] | <3 μL min^−1 10^−6 cells | > 460 min | > 56.2 µM | 3.7 µM | 0% | 17% | > 100 µM | > 100 µM | 3 μL min^−1 10^−6 cells | 450 min | – | – | – | – | – | – | 5.6 µM |
| C=C(CC(=O)NC1(c2ccc(C(F)(F)F)cc2)COC1)C(=O)O [Example 13, 2-methylene-4-oxo-4-((3-(4-(trifluoromethyl)phenyl)oxetan-3-yl)amino)butanoic acid] | 3 μL min^−1 10^−6 cells | 430 min | > 31.6 µM | 19.5 µM | – | – | – | – | <3 μL min^−1 10^−6 cells | > 460 min | – | – | – | – | – | – | – |
| C=C(CC(=O)N[C@@H](C)c1ccc(C(F)(F)F)cn1)C(=O)OC1CN(S(C)(=O)=O)C1 [Example 37, 1-(methylsulfonyl)azetidin-3-yl (S)-2-methylene-4-oxo-4-((1-(5-(trifluoromethyl)pyridin-2-yl)ethyl)amino)butanoate] | 50 μL min^−1 10^−6 cells | 25 min | 7.29 µM | 1.7 µM | 11% | 90% | > 100 µM | 15.8 µM | 104 μL min^−1 10^−6 cells | 12 min | – | – | – | – | – | – | – |
| C=C(CC(=O)N[C@@H](C)c1ccc(C(F)(F)F)cc1)C(=O)OCCN1CCOCC1 [Example 29] | 39 μL min^−1 10^−6 cells | 38 min | 6.7 µM | 10.3 µM | 22% | 86% | > 100 µM | 22.7 µM | 130 μL min^−1 10^−6 cells | 13 min | – | – | – | – | – | – | – |
| C=C(CC(=O)NC1(c2ccc(C(F)(F)F)cc2)CCC1)C(=O)OC1CCN(S(C)(=O)=O)CC1 [Example 9, 1-(methylsulfonyl)piperidin-4-yl 2-methylene-4-oxo-4-((1-(4-(trifluoromethyl)phenyl)cyclobutyl)amino)butanoate] | 116 μL min^−1 10^−6 cells | 10 min | 7.27 µM | 8.2 µM | 55% | 109% | > 100 µM | 19.2 µM | 619 μL min^−1 10^−6 cells | 3.5 min | – | – | – | – | – | – | – |

Source: patent US20240245691A1 (Sitryx Therapeutics Limited, priority 2021, published 2024)
